Our source for the IC50 and EC50 values is ChEMBL document CHEMBL3045002, “3,4-Dihydropyrimidin-2(1H)-one derivatives: Organocatalysed microwave assisted synthesis and evaluation of their antioxidant activity” (Med Chem Res, 2012).

One may read the IC50 as the concentration that inhibits the measured activity by half. Broadly, the EC50 is the concentration that produces a half-maximal response.

Each structure is given as a SMILES string. Converted amounts (≈) assume the structure as drawn.

Holding throughout (assay type): functional
Assay [1] can be described thus: Antioxidant activity assessed as DPPH scavenging activity after 2 hr by spectrophotometry. A general note: Loss of DPPH colour is used to gauge radical scavenging.
Assay [2] in a line: Antioxidant activity assessed as Fe2+ chelating activity after 10 min by spectrophotometry.
Assay [3] can be described thus: Antioxidant activity in phosphate buffer at pH 6.6 assessed as reducing power measuring conversion of potassium ferricyanide to ferrous form after 10 min by spectrophotometry.

As for `COC(=O)C1=C(C)NC(=O)NC1c1ccccc1` (stereo not drawn), the IC50 in assay [1] was 28.43 µg/mL (≈ 115 µM). Moreover, the EC50 in assay [2] turned out to be 2.23 µg/mL (≈ 9.06 µM); in assay [3], 97.56 µg/mL (≈ 396 µM).
As to `CCOC(=O)C1=C(C)NC(=O)NC1c1ccc(O)c(OC)c1` (stereo not drawn), the IC50 in assay [1] worked out at 3.65 µg/mL (≈ 11.9 µM). Further, the EC50 in assay [2] stood at 0.88 µg/mL (≈ 2.87 µM); in assay [3], 49.38 µg/mL (≈ 161 µM).
Regarding `CCOC(=O)C1=C(C)NC(=O)NC1c1ccc(O)cc1` (stereo not drawn), the IC50 in assay [1] was 2.71 µg/mL (≈ 9.81 µM). In addition, the EC50 came out at 0.89 µg/mL (≈ 3.22 µM) in assay [2] and 61.4 µg/mL (≈ 222 µM) in assay [3].
The matching figures for `COC(=O)C1=C(C)NC(=O)NC1c1ccc(OC)cc1` (stereo not drawn): 31.69 µg/mL (≈ 115 µM), 1.92 µg/mL (≈ 6.95 µM) and 206 µg/mL (≈ 746 µM).
With `COC(=O)C1=C(C)NC(=O)NC1c1ccc(O)c(OC)c1` (stereo not drawn), the IC50 in assay [1] was 5.02 µg/mL (≈ 17.2 µM). Also, the figures for the EC50 in assay [2] and in assay [3] were 0.9 µg/mL (≈ 3.08 µM) and 57.14 µg/mL (≈ 195 µM), respectively.
On to `COC(=O)C1=C(C)NC(=O)NC1c1ccc(O)cc1` (stereo not drawn), for which the IC50 in assay [1] turned out to be 3.14 µg/mL (≈ 12 µM). The concentration giving a half-maximal response (EC50) was 0.79 µg/mL (≈ 3.01 µM) in assay [2] and 67 µg/mL (≈ 255 µM) in assay [3].
The matching figures for `COC(=O)C1=C(C)NC(=O)NC1c1cccc([N+](=O)[O-])c1` (stereo not drawn): 27.08 µg/mL (≈ 93 µM), 1.6 µg/mL (≈ 5.49 µM) and 126.35 µg/mL (≈ 434 µM).
The corresponding values for `CCOC(=O)C1=C(C)NC(=O)NC1c1cccc([N+](=O)[O-])c1` (stereo not drawn) are 27.73 µg/mL (≈ 90.8 µM), 1.16 µg/mL (≈ 3.8 µM) and 339.06 µg/mL (≈ 1110 µM).
The matching figures for `CCOC(=O)C1=C(C)NC(=O)NC1c1ccc([N+](=O)[O-])cc1` (stereo not drawn): 33.29 µg/mL (≈ 109 µM), 1.86 µg/mL (≈ 6.09 µM) and 238.09 µg/mL (≈ 780 µM).
On to `COC(=O)C1=C(C)NC(=O)NC1c1ccc([N+](=O)[O-])cc1` (stereo not drawn), for which, in assay [1], the IC50 was found to be 27.78 µg/mL (≈ 95.4 µM). The EC50 in assay [2] was 1.71 µg/mL (≈ 5.87 µM); in assay [3], 170.02 µg/mL (≈ 584 µM).
Turning to `CCOC(=O)C1=C(C)NC(=O)NC1c1ccc(OC)cc1` (stereo not drawn), the IC50 in assay [1] came out at 48.45 µg/mL (≈ 167 µM). Also, the figures for the EC50 in assay [2] and in assay [3] were 1.55 µg/mL (≈ 5.34 µM) and 171.12 µg/mL (≈ 589 µM), respectively.
The matching figures for `CCOC(=O)C1=C(C)NC(=O)NC1c1ccccc1` (stereo not drawn): 25.04 µg/mL (≈ 96.2 µM), 1.04 µg/mL (≈ 4 µM) and 158.9 µg/mL (≈ 610 µM).
With `Cc1cc(C(C)(C)C)c(O)c(C(C)(C)C)c1` [BUTYLATED HYDROXYTOLUENE], the IC50 in assay [1] worked out at 2.18 µg/mL (≈ 9.89 µM). Besides, in assay [3], the EC50 worked out at 20 µg/mL (≈ 90.8 µM).
The matching figures for `Oc1cc(O)c2c(c1)OC(c1ccc(O)c(O)c1)C(O)C2` (stereo not drawn) [CATECHIN]: 2.12 µg/mL (≈ 7.3 µM) and 10 µg/mL (≈ 34.5 µM).
For the compound `O=C(O)CC(O)(CC(=O)O)C(=O)O` [CITRIC ACID], the EC50 in assay [2] was 0.074 µg/mL (≈ 0.385 µM).
Take `O=C(O)c1cc(O)c(O)c(O)c1` [GALLIC ACID]: in assay [1], the IC50 amounted to 2.06 µg/mL (≈ 12.1 µM). Also, in assay [3], the EC50 was 5.25 µg/mL (≈ 30.9 µM).
